Experiments:
Experiment in all cases: biochemical
Format in all cases: biochemical
[1] = molecular target: T1, 363 human kinases (including Aurora A/B/C) (Homo sapiens, UniProt O00141); conditions: SGK1; for remaining activity at 0.1 µM: 100 nM; for remaining activity at 0.1 µM / remaining activity at 0.5 µM: read-out: % Enzyme Activity (relative to DMSO controls)
T1 sequence (O00141 1-431): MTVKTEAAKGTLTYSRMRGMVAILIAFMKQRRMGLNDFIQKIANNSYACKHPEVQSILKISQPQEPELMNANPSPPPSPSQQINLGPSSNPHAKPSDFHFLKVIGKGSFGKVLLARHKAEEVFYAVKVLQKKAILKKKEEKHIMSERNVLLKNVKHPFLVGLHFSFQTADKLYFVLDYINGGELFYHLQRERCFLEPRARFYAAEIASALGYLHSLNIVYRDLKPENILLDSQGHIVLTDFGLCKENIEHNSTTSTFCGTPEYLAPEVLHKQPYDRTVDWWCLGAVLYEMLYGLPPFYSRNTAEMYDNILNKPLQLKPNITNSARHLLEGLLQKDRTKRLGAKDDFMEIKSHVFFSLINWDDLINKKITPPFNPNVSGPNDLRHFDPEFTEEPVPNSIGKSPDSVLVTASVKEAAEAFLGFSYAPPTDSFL
Description: (§1) However, the Aurora A/B selectivity ratios derived from our in vitro and in vivo data can be compared to prioritize inhibitors.

[2] = molecular target: 363 human kinases (including Aurora A/B/C) (Homo sapiens, UniProt O00311); conditions: CDC7/DBF4, [ATP] 15 µM; for remaining activity at 0.1 µM: 100 nM; for remaining activity at 0.1 µM / remaining activity at 0.5 µM: read-out: % Enzyme Activity (relative to DMSO controls)
Description: as §1

[3] = molecular target: 363 human kinases (including Aurora A/B/C) (Homo sapiens, UniProt P05129); conditions: PKCg; for remaining activity at 0.1 µM: 100 nM; for remaining activity at 0.1 µM / remaining activity at 0.5 µM: read-out: % Enzyme Activity (relative to DMSO controls)
Description: as §1

[4] = molecular target: 363 human kinases (including Aurora A/B/C) (Homo sapiens, UniProt P16591); conditions: FER, [ATP] 50 µM; for remaining activity at 0.1 µM: 100 nM; for remaining activity at 0.1 µM / remaining activity at 0.5 µM: read-out: % Enzyme Activity (relative to DMSO controls)
Sequence of 363 human kinases (including Aurora A/B/C) (Homo sapiens, UniProt P16591) (P16591 whole entry): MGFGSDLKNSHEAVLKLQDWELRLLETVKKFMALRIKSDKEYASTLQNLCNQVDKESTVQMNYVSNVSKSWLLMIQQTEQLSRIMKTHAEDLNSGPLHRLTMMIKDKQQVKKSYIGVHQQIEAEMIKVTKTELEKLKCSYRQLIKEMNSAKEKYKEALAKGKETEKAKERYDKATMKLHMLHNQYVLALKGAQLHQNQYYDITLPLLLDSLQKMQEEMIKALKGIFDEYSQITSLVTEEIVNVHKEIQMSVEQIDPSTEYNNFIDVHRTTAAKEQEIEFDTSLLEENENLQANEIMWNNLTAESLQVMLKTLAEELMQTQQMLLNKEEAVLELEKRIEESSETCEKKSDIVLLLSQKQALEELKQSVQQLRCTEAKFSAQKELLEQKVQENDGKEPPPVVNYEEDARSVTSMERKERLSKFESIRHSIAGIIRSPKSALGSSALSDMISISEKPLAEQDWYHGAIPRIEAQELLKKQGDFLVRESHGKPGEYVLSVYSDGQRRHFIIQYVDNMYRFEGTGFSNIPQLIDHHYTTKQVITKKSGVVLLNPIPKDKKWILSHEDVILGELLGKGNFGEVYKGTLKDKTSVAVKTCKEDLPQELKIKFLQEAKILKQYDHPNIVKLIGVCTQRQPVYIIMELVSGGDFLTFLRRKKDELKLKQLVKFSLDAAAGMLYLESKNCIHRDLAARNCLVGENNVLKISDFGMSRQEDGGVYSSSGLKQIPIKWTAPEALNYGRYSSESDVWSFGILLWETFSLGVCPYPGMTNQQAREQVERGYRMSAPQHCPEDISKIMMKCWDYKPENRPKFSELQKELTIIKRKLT
Description: as §1

[5] = molecular target: 363 human kinases (including Aurora A/B/C) (Homo sapiens, UniProt P51617); conditions: IRAK1; for remaining activity at 0.1 µM: 100 nM; for remaining activity at 0.1 µM / remaining activity at 0.5 µM: read-out: % Enzyme Activity (relative to DMSO controls)
Sequence of 363 human kinases (including Aurora A/B/C) (Homo sapiens, UniProt P51617) (P51617 whole entry): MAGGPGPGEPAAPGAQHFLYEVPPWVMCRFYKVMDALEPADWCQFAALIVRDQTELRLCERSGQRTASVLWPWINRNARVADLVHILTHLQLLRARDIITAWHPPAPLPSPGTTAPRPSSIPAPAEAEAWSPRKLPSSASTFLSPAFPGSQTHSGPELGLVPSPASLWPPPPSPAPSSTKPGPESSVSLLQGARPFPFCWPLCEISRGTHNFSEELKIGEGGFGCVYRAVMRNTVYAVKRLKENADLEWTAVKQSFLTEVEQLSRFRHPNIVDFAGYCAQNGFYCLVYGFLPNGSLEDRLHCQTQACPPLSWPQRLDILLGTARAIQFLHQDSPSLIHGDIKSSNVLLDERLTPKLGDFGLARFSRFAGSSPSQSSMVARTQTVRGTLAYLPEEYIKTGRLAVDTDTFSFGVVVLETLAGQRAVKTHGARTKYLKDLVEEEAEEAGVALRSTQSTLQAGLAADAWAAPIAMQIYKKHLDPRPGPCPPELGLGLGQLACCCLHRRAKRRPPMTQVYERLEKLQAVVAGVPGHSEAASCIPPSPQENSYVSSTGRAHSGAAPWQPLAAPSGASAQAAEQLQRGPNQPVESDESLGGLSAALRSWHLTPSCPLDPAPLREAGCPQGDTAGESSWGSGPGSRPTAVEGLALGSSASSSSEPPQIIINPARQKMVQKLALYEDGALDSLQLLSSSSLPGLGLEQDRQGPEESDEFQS
Description: as §1

[6] = molecular target: 363 human kinases (including Aurora A/B/C) (Homo sapiens, UniProt Q05397); conditions: FAK/PTK2, [ATP] 50 µM; for remaining activity at 0.1 µM: 100 nM; for remaining activity at 0.1 µM / remaining activity at 0.5 µM: read-out: % Enzyme Activity (relative to DMSO controls)
Sequence of 363 human kinases (including Aurora A/B/C) (Homo sapiens, UniProt Q05397) (Q05397 whole entry): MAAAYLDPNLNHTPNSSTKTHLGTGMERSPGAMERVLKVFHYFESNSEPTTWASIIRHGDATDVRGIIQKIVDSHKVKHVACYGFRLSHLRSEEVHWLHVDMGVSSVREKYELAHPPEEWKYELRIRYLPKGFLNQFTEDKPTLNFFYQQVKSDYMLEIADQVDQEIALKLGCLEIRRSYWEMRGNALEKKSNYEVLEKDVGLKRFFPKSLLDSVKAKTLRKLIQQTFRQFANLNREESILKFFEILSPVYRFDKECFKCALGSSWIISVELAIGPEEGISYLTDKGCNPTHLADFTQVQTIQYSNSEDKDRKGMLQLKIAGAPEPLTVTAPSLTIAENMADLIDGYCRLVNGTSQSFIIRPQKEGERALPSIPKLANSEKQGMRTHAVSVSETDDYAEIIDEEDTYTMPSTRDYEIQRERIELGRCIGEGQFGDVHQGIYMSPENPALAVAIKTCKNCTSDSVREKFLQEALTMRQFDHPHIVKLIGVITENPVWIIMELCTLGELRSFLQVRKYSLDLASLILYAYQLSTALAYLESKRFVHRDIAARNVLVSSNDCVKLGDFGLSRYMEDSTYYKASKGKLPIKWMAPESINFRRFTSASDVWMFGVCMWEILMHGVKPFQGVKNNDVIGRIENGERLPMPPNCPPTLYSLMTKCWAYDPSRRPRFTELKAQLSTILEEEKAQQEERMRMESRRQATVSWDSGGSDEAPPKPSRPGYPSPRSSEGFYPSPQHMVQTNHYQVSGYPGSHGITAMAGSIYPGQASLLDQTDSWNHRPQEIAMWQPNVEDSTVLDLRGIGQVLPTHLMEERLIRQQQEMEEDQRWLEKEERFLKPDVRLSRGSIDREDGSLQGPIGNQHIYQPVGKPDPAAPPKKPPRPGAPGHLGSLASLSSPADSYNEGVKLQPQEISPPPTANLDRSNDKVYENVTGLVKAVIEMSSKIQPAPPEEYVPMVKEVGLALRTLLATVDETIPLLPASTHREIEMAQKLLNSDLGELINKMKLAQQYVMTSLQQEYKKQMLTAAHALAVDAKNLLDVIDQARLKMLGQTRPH
Description: as §1

[7] = molecular target: 363 human kinases (including Aurora A/B/C) (Homo sapiens, UniProt Q07912); conditions: ACK1, [ATP] 100 µM; for remaining activity at 0.1 µM: 100 nM; for remaining activity at 0.1 µM / remaining activity at 0.5 µM: read-out: % Enzyme Activity (relative to DMSO controls)
Description: as §1

[8] = molecular target: 363 human kinases (including Aurora A/B/C) (Homo sapiens, UniProt Q16512); conditions: PKN1/PRK1; for remaining activity at 0.1 µM: 100 nM; for remaining activity at 0.1 µM / remaining activity at 0.5 µM: read-out: % Enzyme Activity (relative to DMSO controls)
Description: as §1

[9] = molecular target: 363 human kinases (including Aurora A/B/C) (Homo sapiens, UniProt Q16644); conditions: MAPKAPK3; for remaining activity at 0.1 µM: 100 nM; for remaining activity at 0.1 µM / remaining activity at 0.5 µM: read-out: % Enzyme Activity (relative to DMSO controls)
Sequence of 363 human kinases (including Aurora A/B/C) (Homo sapiens, UniProt Q16644) (Q16644 whole entry): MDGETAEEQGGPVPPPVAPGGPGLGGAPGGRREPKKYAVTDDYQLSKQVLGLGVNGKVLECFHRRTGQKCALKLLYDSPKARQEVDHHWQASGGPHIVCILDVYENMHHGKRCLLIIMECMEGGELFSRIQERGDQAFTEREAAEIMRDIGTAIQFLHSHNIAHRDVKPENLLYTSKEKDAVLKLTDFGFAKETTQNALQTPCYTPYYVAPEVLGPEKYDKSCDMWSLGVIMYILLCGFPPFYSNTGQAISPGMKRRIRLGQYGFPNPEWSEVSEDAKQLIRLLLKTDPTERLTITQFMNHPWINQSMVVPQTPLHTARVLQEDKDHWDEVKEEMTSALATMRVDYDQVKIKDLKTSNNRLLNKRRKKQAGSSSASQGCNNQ
Description: as §1

[10] = molecular target: 363 human kinases (including Aurora A/B/C) (Homo sapiens, UniProt Q52WX2); conditions: SBK1; for remaining activity at 0.1 µM: 100 nM; for remaining activity at 0.1 µM / remaining activity at 0.5 µM: read-out: % Enzyme Activity (relative to DMSO controls)
Sequence of 363 human kinases (including Aurora A/B/C) (Homo sapiens, UniProt Q52WX2) (Q52WX2 whole entry): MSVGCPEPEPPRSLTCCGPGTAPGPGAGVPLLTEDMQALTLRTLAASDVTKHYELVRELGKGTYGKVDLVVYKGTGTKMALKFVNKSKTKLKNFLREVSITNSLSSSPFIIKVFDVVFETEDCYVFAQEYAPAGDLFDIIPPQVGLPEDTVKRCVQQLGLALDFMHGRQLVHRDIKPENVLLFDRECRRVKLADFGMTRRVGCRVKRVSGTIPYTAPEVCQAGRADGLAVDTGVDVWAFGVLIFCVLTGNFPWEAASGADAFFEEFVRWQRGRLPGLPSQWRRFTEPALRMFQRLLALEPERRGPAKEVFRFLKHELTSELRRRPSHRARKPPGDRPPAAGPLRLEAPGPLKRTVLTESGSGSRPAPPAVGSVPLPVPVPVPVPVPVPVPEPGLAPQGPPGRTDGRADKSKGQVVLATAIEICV
Description: as §1

[11] = molecular target: 363 human kinases (including Aurora A/B/C) (Homo sapiens, UniProt Q5TCY1); conditions: TTBK1; for remaining activity at 0.1 µM: 100 nM; for remaining activity at 0.1 µM / remaining activity at 0.5 µM: read-out: % Enzyme Activity (relative to DMSO controls)
Sequence of 363 human kinases (including Aurora A/B/C) (Homo sapiens, UniProt Q5TCY1) (Q5TCY1 whole entry): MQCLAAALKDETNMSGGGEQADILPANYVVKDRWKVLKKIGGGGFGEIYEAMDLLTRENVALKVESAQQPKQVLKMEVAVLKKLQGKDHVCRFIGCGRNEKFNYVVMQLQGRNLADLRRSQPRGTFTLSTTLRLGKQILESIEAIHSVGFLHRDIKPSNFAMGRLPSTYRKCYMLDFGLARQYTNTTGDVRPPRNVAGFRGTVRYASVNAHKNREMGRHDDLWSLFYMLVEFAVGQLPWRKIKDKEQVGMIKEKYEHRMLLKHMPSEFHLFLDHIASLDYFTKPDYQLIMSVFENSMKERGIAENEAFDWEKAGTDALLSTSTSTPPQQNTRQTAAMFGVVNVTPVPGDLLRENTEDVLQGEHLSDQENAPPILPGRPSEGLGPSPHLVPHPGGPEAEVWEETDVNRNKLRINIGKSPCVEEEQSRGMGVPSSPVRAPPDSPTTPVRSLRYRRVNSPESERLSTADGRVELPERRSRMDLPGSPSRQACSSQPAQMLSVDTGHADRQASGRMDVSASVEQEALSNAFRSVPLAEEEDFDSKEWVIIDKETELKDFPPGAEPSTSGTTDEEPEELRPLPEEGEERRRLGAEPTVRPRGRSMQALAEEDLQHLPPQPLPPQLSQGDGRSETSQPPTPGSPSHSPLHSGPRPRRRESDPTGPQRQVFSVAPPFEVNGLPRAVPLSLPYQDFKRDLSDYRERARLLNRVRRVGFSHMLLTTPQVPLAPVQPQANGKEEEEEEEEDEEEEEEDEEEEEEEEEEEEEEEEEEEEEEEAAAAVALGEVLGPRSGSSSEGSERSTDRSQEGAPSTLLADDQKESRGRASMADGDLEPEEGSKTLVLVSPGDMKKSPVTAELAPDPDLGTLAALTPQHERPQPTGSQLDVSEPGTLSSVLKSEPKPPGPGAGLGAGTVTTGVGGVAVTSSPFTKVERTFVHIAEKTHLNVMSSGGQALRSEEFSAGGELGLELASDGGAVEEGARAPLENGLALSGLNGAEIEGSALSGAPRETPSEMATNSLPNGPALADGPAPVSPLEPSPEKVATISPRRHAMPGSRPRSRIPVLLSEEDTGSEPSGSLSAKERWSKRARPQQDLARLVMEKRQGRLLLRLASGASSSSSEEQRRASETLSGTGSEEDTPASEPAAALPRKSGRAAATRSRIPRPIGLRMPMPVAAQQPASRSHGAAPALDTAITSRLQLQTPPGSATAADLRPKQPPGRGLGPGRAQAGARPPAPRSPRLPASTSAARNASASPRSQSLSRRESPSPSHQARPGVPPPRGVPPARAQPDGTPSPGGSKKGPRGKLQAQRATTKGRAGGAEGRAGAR
Description: as §1

[12] = molecular target: 363 human kinases (including Aurora A/B/C) (Homo sapiens, UniProt Q8TDX7); conditions: NEK7; for remaining activity at 0.1 µM: 100 nM; for remaining activity at 0.1 µM / remaining activity at 0.5 µM: read-out: % Enzyme Activity (relative to DMSO controls)
Sequence of 363 human kinases (including Aurora A/B/C) (Homo sapiens, UniProt Q8TDX7) (Q8TDX7 whole entry): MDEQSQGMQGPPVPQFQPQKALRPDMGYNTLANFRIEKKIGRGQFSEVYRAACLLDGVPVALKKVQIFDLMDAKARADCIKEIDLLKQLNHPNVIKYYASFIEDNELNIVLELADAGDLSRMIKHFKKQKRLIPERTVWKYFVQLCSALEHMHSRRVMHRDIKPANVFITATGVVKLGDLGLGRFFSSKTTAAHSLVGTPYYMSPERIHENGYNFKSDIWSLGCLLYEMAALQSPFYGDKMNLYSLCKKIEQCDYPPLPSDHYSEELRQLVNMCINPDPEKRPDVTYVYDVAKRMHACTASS
Description: as §1

[13] = molecular target: T2, 363 human kinases (including Aurora A/B/C) (Homo sapiens, UniProt Q8TF76); conditions: Haspin; for remaining activity at 0.1 µM: 100 nM; for remaining activity at 0.1 µM / remaining activity at 0.5 µM: read-out: % Enzyme Activity (relative to DMSO controls)
T2 sequence (Q8TF76 1-798): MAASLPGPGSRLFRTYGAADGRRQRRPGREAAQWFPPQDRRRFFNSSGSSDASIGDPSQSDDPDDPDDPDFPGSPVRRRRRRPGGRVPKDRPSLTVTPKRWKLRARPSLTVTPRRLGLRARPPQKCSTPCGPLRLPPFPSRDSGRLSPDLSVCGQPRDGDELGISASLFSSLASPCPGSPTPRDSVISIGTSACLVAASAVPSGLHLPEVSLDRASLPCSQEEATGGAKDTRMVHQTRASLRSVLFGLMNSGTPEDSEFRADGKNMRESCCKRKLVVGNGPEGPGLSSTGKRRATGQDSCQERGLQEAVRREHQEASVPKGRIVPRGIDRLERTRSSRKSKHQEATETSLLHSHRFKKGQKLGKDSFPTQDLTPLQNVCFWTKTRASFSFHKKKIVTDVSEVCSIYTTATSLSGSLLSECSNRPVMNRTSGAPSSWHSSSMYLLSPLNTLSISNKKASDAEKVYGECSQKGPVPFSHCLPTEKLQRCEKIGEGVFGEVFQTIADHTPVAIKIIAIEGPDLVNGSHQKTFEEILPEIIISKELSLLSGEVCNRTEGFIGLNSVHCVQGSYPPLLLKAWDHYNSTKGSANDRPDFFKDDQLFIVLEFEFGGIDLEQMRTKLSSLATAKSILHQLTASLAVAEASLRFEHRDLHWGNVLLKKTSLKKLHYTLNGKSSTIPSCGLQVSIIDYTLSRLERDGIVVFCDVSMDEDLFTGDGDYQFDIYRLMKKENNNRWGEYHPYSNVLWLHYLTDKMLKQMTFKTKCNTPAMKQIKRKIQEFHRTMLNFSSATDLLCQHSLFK
Description: as §1

| Compound | remaining activity at 0.1 µM [1] [%] | remaining activity at 0.1 µM [2] [%] | remaining activity at 0.1 µM [3] [%] | remaining activity at 0.1 µM [4] [%] | remaining activity at 0.1 µM [5] [%] | remaining activity at 0.1 µM [6] [%] | remaining activity at 0.1 µM [7] [%] | remaining activity at 0.1 µM [8] [%] | remaining activity at 0.1 µM [9] [%] | remaining activity at 0.1 µM [10] [%] | remaining activity at 0.1 µM [11] [%] | remaining activity at 0.1 µM [12] [%] | remaining activity at 0.1 µM [13] [%] | remaining activity at 0.5 µM ([1]; 500 nM) [%] | remaining activity at 0.5 µM ([2]; 500 nM) [%] | remaining activity at 0.5 µM ([3]; 500 nM) [%] | remaining activity at 0.5 µM ([4]; 500 nM) [%] | remaining activity at 0.5 µM ([5]; 500 nM) [%] | remaining activity at 0.5 µM ([6]; 500 nM) [%] | remaining activity at 0.5 µM ([7]; 500 nM) [%] | other results |
| --- | --- | --- | --- | --- | --- | --- | --- | --- | --- | --- | --- | --- | --- | --- | --- | --- | --- | --- | --- | --- | --- |
| CCn1cc(-c2ccnc3[nH]c(-c4cccc(CN(C)C)c4)cc23)c(-c2ccc(NC(=O)N(C)C)cc2)n1 [GSK1070916] | 118 | 95.4 | 82.3 | 96.5 | 122 | 95.2 | 83.9 | 103 | 93.8 | 101 | 115 | 102 | 86.9 |  |  |  |  |  |  |  |  |
| O=C(O)[C@]1(Cc2cccc(Nc3nccs3)n2)CC[C@@H](Oc2cccc(Cl)c2F)CC1 [MK-5108] | 104 | 103 | 93.7 | 87 | 5.35 | 49.8 | 15.8 | 96 | 99.7 | 102 | 101 | 98.5 | 101 | 113 | 96.2 | 63 | 49.8 | 1.01 | 15.2 | 1.62 | remaining activity at 0.5 µM ([8]; 500 nM): 115%; remaining activity at 0.5 µM ([9]; 500 nM): 84.9%; remaining activity at 0.5 µM ([10]; 500 nM): 96.3%; remaining activity at 0.5 µM ([11]; 500 nM): 116%; remaining activity at 0.5 µM ([12]; 500 nM): 109%; remaining activity at 0.5 µM ([13]; 500 nM): 74% |
| O=C(c1cccc(Cl)c1F)N1CCN(Cc2cccc(Nc3nccs3)n2)CC1 [MK-8745] |  |  |  |  |  |  |  |  |  |  |  |  |  | 104 | 103 | 91.9 | 83.7 | 19 | 60.2 | 51.9 | % Enzyme Activity (relative to DMSO controls) ([1]; 500 nM): 103.73%; % Enzyme Activity (relative to DMSO controls) ([2]; 500 nM): 101.19%; % Enzyme Activity (relative to DMSO controls) ([3]; 500 nM): 90.37%; % Enzyme Activity (relative to DMSO controls) ([4]; 500 nM): 82.62%; % Enzyme Activity (relative to DMSO controls) ([5]; 500 nM): 18.29%; % Enzyme Activity (relative to DMSO controls) ([6]; 500 nM): 58.97%; % Enzyme Activity (relative to DMSO controls) ([7]; 500 nM): 50.10%; % Enzyme Activity (relative to DMSO controls) ([8]; 500 nM): 94.45%; remaining activity at 0.5 µM ([8]; 500 nM): 96.7%; % Enzyme Activity (relative to DMSO controls) ([9]; 500 nM): 87.18%; remaining activity at 0.5 µM ([9]; 500 nM): 88.7%; % Enzyme Activity (relative to DMSO controls) ([10]; 500 nM): 95.86%; remaining activity at 0.5 µM ([10]; 500 nM): 96.4%; % Enzyme Activity (relative to DMSO controls) ([11]; 500 nM): 108.75%; remaining activity at 0.5 µM ([11]; 500 nM): 111%; % Enzyme Activity (relative to DMSO controls) ([12]; 500 nM): 107.51%; remaining activity at 0.5 µM ([12]; 500 nM): 109%; % Enzyme Activity (relative to DMSO controls) ([13]; 500 nM): 100.89%; remaining activity at 0.5 µM ([13]; 500 nM): 102% |

Source: PMC4685510, “A Cell Biologist’s Field Guide to Aurora Kinase Inhibitors” (Frontiers in Oncology, 2015)
